Experimental data taken from PMC10620772, “Design, synthesis, and biological evaluation of new pyrimidine-5-carbonitrile derivatives as novel anti-cancer, dual EGFR^WT/COX-2 inhibitors with docking studies” (RSC Advances, 2023).

What was measured:
Assay in all cases: NCI60 antitumor screening
Type in all cases: cell-based, human
CCRF-CEM = conditions: Homo sapiens; 10 μM single dose; CCRF-CEM (leukaemia); read-out: growth inhibition percent (GI%)
HL-60(TB) = conditions: Homo sapiens; 10 μM single dose; HL-60(TB) (leukaemia); read-out: growth inhibition percent (GI%)
K-562 = conditions: for inhibition at 10 µM: Homo sapiens, 10 μM single dose, (leukaemia), read-out: growth inhibition percent (GI%)
RPMI-8226 = conditions: Homo sapiens; 10 μM single dose; RPMI-8226 (leukaemia); read-out: growth inhibition percent (GI%)
A549/ATCC = conditions: Homo sapiens; 10 μM single dose; A549/ATCC (non-small cell lung cancer); read-out: growth inhibition percent (GI%)
HOP-62 = conditions: for inhibition at 10 µM: Homo sapiens, 10 μM single dose, HOP-62 (non-small cell lung cancer), read-out: growth inhibition percent (GI%)
NCI-H226 = conditions: for inhibition at 10 µM: Homo sapiens, 10 μM single dose, NCI-H226 (non-small cell lung cancer), read-out: growth inhibition percent (GI%)
NCI-H322M = conditions: Homo sapiens; 10 μM single dose; NCI-H322M (non-small cell lung cancer); read-out: growth inhibition percent (GI%)
NCI-H460 = conditions: Homo sapiens; 10 μM single dose; NCI-H460 (non-small cell lung cancer); read-out: growth inhibition percent (GI%)
NCI-H522 = conditions: Homo sapiens; 10 μM single dose; NCI-H522 (non-small cell lung cancer); read-out: growth inhibition percent (GI%)
HCC-2998 = conditions: Homo sapiens; 10 μM single dose; HCC-2998 (colon cancer); read-out: growth inhibition percent (GI%)
HCT-15 = conditions: Homo sapiens; 10 μM single dose; HCT-15 (colon cancer); read-out: growth inhibition percent (GI%)
HT29 = conditions: Homo sapiens, HT-29; 10 μM single dose; HT29 (colon cancer); read-out: growth inhibition percent (GI%)
SW-620 = conditions: Homo sapiens; 10 μM single dose; SW-620 (colon cancer); read-out: growth inhibition percent (GI%)
SF-268 = conditions: Homo sapiens; 10 μM single dose; SF-268 (CNS cancer); read-out: growth inhibition percent (GI%)
SF-539 = conditions: for inhibition at 10 µM: Homo sapiens, 10 μM single dose, SF-539 (CNS cancer), read-out: growth inhibition percent (GI%)
SNB-19 = conditions: Homo sapiens; 10 μM single dose; SNB-19 (CNS cancer); read-out: growth inhibition percent (GI%)
SNB-75 = conditions: for inhibition at 10 µM: Homo sapiens, 10 μM single dose, SNB-75 (CNS cancer), read-out: growth inhibition percent (GI%)
U251 = conditions: Homo sapiens, U-251; 10 μM single dose; U251 (CNS cancer); read-out: growth inhibition percent (GI%)
LOX IMVI = conditions: Homo sapiens; 10 μM single dose; LOX IMVI (melanoma); read-out: growth inhibition percent (GI%)
MALME-3M = conditions: Homo sapiens; 10 μM single dose; MALME-3M (melanoma); read-out: growth inhibition percent (GI%)
MDA-MB-435 = conditions: Homo sapiens; 10 μM single dose; MDA-MB-435 (melanoma); read-out: growth inhibition percent (GI%)
SK-MEL-5 = conditions: Homo sapiens; 10 μM single dose; SK-MEL-5 (melanoma); read-out: growth inhibition percent (GI%)
UACC-62 = conditions: Homo sapiens; 10 μM single dose; UACC-62 (melanoma); read-out: growth inhibition percent (GI%)
IGROV1 = conditions: Homo sapiens, IGROV-1; 10 μM single dose; IGROV1 (ovarian cancer); read-out: growth inhibition percent (GI%)
OVCAR-4 = conditions: for inhibition at 10 µM: Homo sapiens, 10 μM single dose, OVCAR-4 (ovarian cancer), read-out: growth inhibition percent (GI%)
OVCAR-5 = conditions: Homo sapiens; 10 μM single dose; OVCAR-5 (ovarian cancer); read-out: growth inhibition percent (GI%)
OVCAR-8 = conditions: Homo sapiens; 10 μM single dose; OVCAR-8 (ovarian cancer); read-out: growth inhibition percent (GI%)
NCI/ADR-RES = conditions: Homo sapiens; 10 μM single dose; NCI/ADR-RES (ovarian cancer); read-out: growth inhibition percent (GI%)
786–0 = conditions: for inhibition at 10 µM: Homo sapiens, 10 μM single dose, 786–0 (renal cancer), read-out: growth inhibition percent (GI%)
A498 = conditions: Homo sapiens; 10 μM single dose; A498 (renal cancer); read-out: growth inhibition percent (GI%)
ACHN = conditions: Homo sapiens; 10 μM single dose; ACHN (renal cancer); read-out: growth inhibition percent (GI%)
CAKI-1 = conditions: Homo sapiens; 10 μM single dose; CAKI-1 (renal cancer); read-out: growth inhibition percent (GI%)
RXF 393 = conditions: for inhibition at 10 µM: Homo sapiens, 10 μM single dose, RXF 393 (renal cancer), read-out: growth inhibition percent (GI%)
TK-10 = conditions: Homo sapiens; 10 μM single dose; TK-10 (renal cancer); read-out: growth inhibition percent (GI%)
UO-31 = conditions: Homo sapiens; 10 μM single dose; UO-31 (renal cancer); read-out: growth inhibition percent (GI%)
MCF7 = conditions: Homo sapiens; 10 μM single dose; MCF7 (breast cancer); read-out: growth inhibition percent (GI%)
MDA-MB-468 = conditions: Homo sapiens; 10 μM single dose; MDA-MB-468 (breast cancer); read-out: growth inhibition percent (GI%)

## N#Cc1c(-c2ccc(F)cc2)nc(SCc2ccc([N+](=O)[O-])cc2)nc1N1CCNCC1 [4g, 4-(4-Fluorophenyl)-2-((4-nitrobenzyl)thio)-6-(piperazin-1-yl) pyrimidine-5-carbonitrile]
CCRF-CEM
  inhibition at 10 µM: < 10%
HL-60(TB)
  inhibition at 10 µM: < 10%
K-562
  inhibition at 10 µM: < 10%
RPMI-8226
  inhibition at 10 µM: < 10%
A549/ATCC
  inhibition at 10 µM: < 10%
HOP-62
  inhibition at 10 µM: < 10%
NCI-H226
  inhibition at 10 µM: < 10%
NCI-H322M
  inhibition at 10 µM: < 10%
NCI-H460
  inhibition at 10 µM: < 10%
NCI-H522
  inhibition at 10 µM: < 10%
HCC-2998
  inhibition at 10 µM: < 10%
HCT-15
  inhibition at 10 µM: < 10%
HT29
  inhibition at 10 µM: < 10%
SW-620
  inhibition at 10 µM: < 10%
SF-268
  inhibition at 10 µM: < 10%
SF-539
  inhibition at 10 µM: < 10%
SNB-19
  inhibition at 10 µM: < 10%
SNB-75
  inhibition at 10 µM: 15.9%
U251
  inhibition at 10 µM: < 10%
LOX IMVI
  inhibition at 10 µM: < 10%
MALME-3M
  inhibition at 10 µM: < 10%
MDA-MB-435
  inhibition at 10 µM: < 10%
SK-MEL-5
  inhibition at 10 µM: < 10%
UACC-62
  inhibition at 10 µM: < 10%
IGROV1
  inhibition at 10 µM: < 10%
OVCAR-4
  inhibition at 10 µM: < 10%
OVCAR-5
  inhibition at 10 µM: < 10%
OVCAR-8
  inhibition at 10 µM: < 10%
NCI/ADR-RES
  inhibition at 10 µM: < 10%
786–0
  inhibition at 10 µM: < 10%
A498
  inhibition at 10 µM: < 10%
ACHN
  inhibition at 10 µM: < 10%
CAKI-1
  inhibition at 10 µM: 11%
RXF 393
  inhibition at 10 µM: 15.2%
TK-10
  inhibition at 10 µM: < 10%
UO-31
  inhibition at 10 µM: 11.9%
MCF7
  inhibition at 10 µM: < 10%
MDA-MB-468
  inhibition at 10 µM: < 10%

## Cc1ccc(CSc2nc(-c3ccc(F)cc3)c(C#N)c(N3CCNCC3)n2)cc1 [4h, 4-(4-Fluorophenyl)-2-((4-methylbenzyl)thio)-6-(piperazin-1-yl)pyrimidine-5-carbonitrile]
CCRF-CEM
  inhibition at 10 µM: < 10%
HL-60(TB)
  inhibition at 10 µM: < 10%
K-562
  inhibition at 10 µM: < 10%
RPMI-8226
  inhibition at 10 µM: < 10%
A549/ATCC
  inhibition at 10 µM: < 10%
HOP-62
  inhibition at 10 µM: < 10%
NCI-H226
  inhibition at 10 µM: < 10%
NCI-H322M
  inhibition at 10 µM: < 10%
NCI-H460
  inhibition at 10 µM: < 10%
NCI-H522
  inhibition at 10 µM: < 10%
HCC-2998
  inhibition at 10 µM: < 10%
HCT-15
  inhibition at 10 µM: < 10%
HT29
  inhibition at 10 µM: < 10%
SW-620
  inhibition at 10 µM: < 10%
SF-268
  inhibition at 10 µM: < 10%
SF-539
  inhibition at 10 µM: < 10%
SNB-19
  inhibition at 10 µM: < 10%
SNB-75
  inhibition at 10 µM: 19.5%
U251
  inhibition at 10 µM: < 10%
LOX IMVI
  inhibition at 10 µM: < 10%
MALME-3M
  inhibition at 10 µM: < 10%
MDA-MB-435
  inhibition at 10 µM: < 10%
SK-MEL-5
  inhibition at 10 µM: < 10%
UACC-62
  inhibition at 10 µM: < 10%
IGROV1
  inhibition at 10 µM: < 10%
OVCAR-4
  inhibition at 10 µM: < 10%
OVCAR-5
  inhibition at 10 µM: < 10%
OVCAR-8
  inhibition at 10 µM: < 10%
NCI/ADR-RES
  inhibition at 10 µM: < 10%
786–0
  inhibition at 10 µM: < 10%
A498
  inhibition at 10 µM: < 10%
ACHN
  inhibition at 10 µM: < 10%
CAKI-1
  inhibition at 10 µM: 11.7%
RXF 393
  inhibition at 10 µM: < 10%
TK-10
  inhibition at 10 µM: < 10%
UO-31
  inhibition at 10 µM: 12.1%
MCF7
  inhibition at 10 µM: < 10%
MDA-MB-468
  inhibition at 10 µM: < 10%

## CN1CCN(c2nc(SCc3ccccc3)nc(-c3ccc(F)cc3)c2C#N)CC1 [4i, 2-(Benzylthio)-4-(4-fluorophenyl)-6-(4-methylpiperazin-1-yl) pyrimidine-5-carbonitrile]
CCRF-CEM
  inhibition at 10 µM: 37.9%
HL-60(TB)
  inhibition at 10 µM: 36.5%
K-562; 10 μM one-dose, Table 1
  GI%: 73.15%
K-562
  inhibition at 10 µM: 73.2%
RPMI-8226
  inhibition at 10 µM: 56.4%
A549/ATCC
  inhibition at 10 µM: 38.3%
HOP-62; 10 μM one-dose, Table 1
  GI%: — (GI value > 70%)
HOP-62
  inhibition at 10 µM: 10.3%
NCI-H226; 10 μM one-dose, Table 1
  GI%: — (GI value > 70%)
NCI-H226
  inhibition at 10 µM: < 10%
NCI-H322M
  inhibition at 10 µM: 16%
NCI-H460
  inhibition at 10 µM: 35.1%
NCI-H522
  inhibition at 10 µM: 31.7%
HCC-2998
  inhibition at 10 µM: < 10%
HCT-15
  inhibition at 10 µM: 46.8%
HT29
  inhibition at 10 µM: 67%
SW-620
  inhibition at 10 µM: 10%
SF-268
  inhibition at 10 µM: 26.8%
SF-539; 10 μM one-dose, Table 1
  GI%: — (GI value > 70%)
SF-539
  inhibition at 10 µM: 14.4%
SNB-19
  inhibition at 10 µM: 10%
SNB-75; 10 μM one-dose, Table 1
  GI%: — (GI value > 70%)
SNB-75
  inhibition at 10 µM: 41%
U251
  inhibition at 10 µM: < 10%
LOX IMVI
  inhibition at 10 µM: 25.4%
MALME-3M
  inhibition at 10 µM: < 10%
MDA-MB-435
  inhibition at 10 µM: 12.8%
SK-MEL-5
  inhibition at 10 µM: 33.6%
UACC-62
  inhibition at 10 µM: 19.6%
IGROV1
  inhibition at 10 µM: < 10%
OVCAR-4; 10 μM one-dose, Table 1
  GI%: — (GI value > 70%)
OVCAR-4
  inhibition at 10 µM: 22.5%
OVCAR-5
  inhibition at 10 µM: < 10%
OVCAR-8
  inhibition at 10 µM: 14.1%
NCI/ADR-RES
  inhibition at 10 µM: < 10%
786–0; 10 μM one-dose, Table 1
  GI%: — (GI value > 70%)
786–0
  inhibition at 10 µM: 29.3%
A498
  inhibition at 10 µM: 12.5%
ACHN
  inhibition at 10 µM: 14.8%
CAKI-1
  inhibition at 10 µM: 37.9%
RXF 393; 10 μM one-dose, Table 1
  GI%: — (GI value > 70%)
RXF 393
  inhibition at 10 µM: 49.7%
TK-10
  inhibition at 10 µM: < 10%
UO-31
  inhibition at 10 µM: 36%
MCF7
  inhibition at 10 µM: 30.8%
MDA-MB-468
  inhibition at 10 µM: 29.2%
